Data from US20130158362A1 (INFACARE PHARMACEUTICAL CORPORATION, priority 2011, published 2013).

Tested on: total serum bilirubin (TSB)
Experiment: Phase 2b trial: total serum bilirubin (TSB), adjusted and unadjusted, change from baseline
Assay type: in vivo, human
Set-up: total serum bilirubin / total serum bilirubin, Delta (change from baseline) / Change from baseline of total serum bilirubin: unit not given here
Settings: for change from baseline in unadjusted TSB, Mean (SD) / change from baseline in unadjusted TSB, Median / unadjusted TSB, Mean (SD) / unadjusted TSB, Median / change from baseline in adjusted TSB, LS mean (SEM) / change from baseline in adjusted TSB, LS mean difference versus placebo / change from baseline in unadjusted TSB, LS Mean (SEM) / change from baseline in unadjusted TSB, LS Mean Difference versus placebo / adjusted TSB, Mean (SD) / change from baseline in adjusted TSB, Mean (SD) / change from baseline in adjusted TSB, Median / change from baseline in adjusted TSB, LS mean difference versus placebo, MMRM / change from baseline in adjusted TSB, LS means (SEM), MMRM: ITT; for Change from baseline of total serum bilirubin: 4.5 mg/kg (N = 5); for change from baseline in adjusted TSB, LS mean difference versus placebo, MMRM / change from baseline in adjusted TSB, LS means (SEM), MMRM: observed case
Description: Three cohorts of subjects were recruited. This clinical study was designed to evaluate safety and efficacy parameters in each cohort.
Scheduled assessments (including TSB) occurred before treatment and at 0.75 and 2 hours (or 1.5 and 3 hours, depending on PK blood sampling assignment); 6, 12, 24, 48, and 72 hours; and 14 and 30 (except TSB) days after treatment or early termination.
The primary efficacy endpoint was the change in adjusted TSB from baseline to 48 hours after treatment. The adjusted TSB was a calculation of the percentage variance of the TSB level from the age specific threshold for PT initiation per the AAP Guidelines, i.e., an indication of the distance below the PT threshold by time.
The Secondary Efficacy Endpoints were the change from baseline in unadjusted TSB at 48 hours after treatment, change from baseline in adjusted and unadjusted TSB at various other time points after treatment, percent change from baseline in unadjusted TSB, proportion of subjects who require PT/exchange transfusion (ET), time to PT/ET, duration of PT and time to hospital discharge.
Intent-to-treat population (ITT): Defined as all subjects who were randomly assigned treatment in the clinical study, had received IMP, and had at least 1 post baseline TSB measurement during the first 48 hours after treatment. Subjects were summarized based on randomized treatment.
Analysis of Efficacy Parameters: The primary efficacy analysis applied the analysis of covariance (ANCOVA) method to determine if there was a significant difference between treatment groups in change in adjusted TSB levels from baseline to 48 hours post baseline after controlling for the effects of gestational age and adjusted baseline TSB levels. If assumptions of ANCOVA appeared to be violated, a Wilcoxon rank-sum test could be performed instead. Time-to-event variables were analyzed using the Kaplan-Meier method, and Kaplan-Meier survival curves were presented.

[1] = 3.0 mg/kg IM, 72 h, LOCF, ANCOVA
[2] = 3.0 mg/kg IM, 14 days/early termination, LOCF
[3] = 3.0 mg/kg IM, 14 days/early termination, LOCF, ANCOVA
[4] = 3.0 mg/kg versus the placebo group, 48 Hours/Early termination, PP Population, ANCOVA
[5] = 3.0 mg/kg, 48 Hours/Early termination, PP Population, LOCF
[6] = 3.0 mg/kg, 6 hrs, unadjusted TSB, ITT Population
[7] = 3.0 mg/kg, 12 hrs, unadjusted TSB, ITT Population
[8] = 3.0 mg/kg, 24 hrs, unadjusted TSB, ITT Population
[9] = 3.0 mg/kg, 48 hrs, unadjusted TSB, ITT Population
[10] = 3.0 mg/kg, baseline, PP Population
[11] = 3.0 mg/kg, baseline, unadjusted TSB, ITT Population
[12] = 4.5 mg/kg IM, 6 h, LOCF, ANCOVA
[13] = 4.5 mg/kg IM, 12 h, LOCF, ANCOVA

tin IV mesoporphyrin IX dichloride [Stannsoporfin]
change from baseline in unadjusted TSB, Mean (SD) (3.0 mg/kg IM, 72 h, LOCF): 1.66 (3.496) mg/dL
change from baseline in unadjusted TSB, Median (3.0 mg/kg IM, 72 h, LOCF): 2.45 mg/dL
unadjusted TSB, Mean (SD) (3.0 mg/kg IM, 72 h, LOCF): 9.87 (3.681) mg/dL
unadjusted TSB, Median (3.0 mg/kg IM, 72 h, LOCF): 10.70 mg/dL
change from baseline in adjusted TSB, LS mean (SEM) [1]: −19.28 (6.633) %
change from baseline in adjusted TSB, LS mean difference versus placebo [1]: −14.53%
change from baseline in unadjusted TSB, LS Mean (SEM) [1]: 2.77 (1.133) mg/dL
change from baseline in unadjusted TSB, LS Mean Difference versus placebo [1]: -2.18 mg/dL
change from baseline in unadjusted TSB, Mean (SD) [2]: −2.98 (5.389) mg/dL
change from baseline in unadjusted TSB, Median [2]: -4.80 mg/dL
unadjusted TSB, Mean (SD) [2]: 5.23 (5.123) mg/dL
unadjusted TSB, Median [2]: 3.40 mg/dL
change from baseline in unadjusted TSB, LS Mean (SEM) [3]: −2.42 (1.324) mg/dL
change from baseline in unadjusted TSB, LS Mean Difference versus placebo [3]: -0.12 mg/dL
48 Hours/Early termination change from baseline in unadjusted TSB, LS mean difference [4]: -1.74 mg/dL
P-value of LS mean difference, change from baseline in unadjusted TSB [4]: 0.078
48 Hours/Early termination change from baseline in unadjusted TSB, Max [5]: 5.4 mg/dL
48 Hours/Early termination change from baseline in unadjusted TSB, Mean (SD) [5]: 2.20 (2.928) mg/dL
48 Hours/Early termination change from baseline in unadjusted TSB, Median [5]: 2.87 mg/dL
48 Hours/Early termination change from baseline in unadjusted TSB, Min [5]: -3.4 mg/dL
48 Hours/Early termination unadjusted TSB, Max [5]: 13.8 mg/dL
48 Hours/Early termination unadjusted TSB, Mean (SD) [5]: 10.53 (2.911) mg/dL
48 Hours/Early termination unadjusted TSB, Median [5]: 11.60 mg/dL
48 Hours/Early termination unadjusted TSB, Min [5]: 4.2 mg/dL
48 Hours/Early termination change from baseline in unadjusted TSB, LS mean (SEM) (3.0 mg/kg, 48 Hours/Early termination, PP Population, LOCF, ANCOVA): 2.20 (0.881) mg/dL
6 hrs Percent Change from Baseline in TSB, Max [6]: 59.0%
6 hrs Percent Change from Baseline in TSB, Mean (SD) [6]: 19.54 (12.055) %
6 hrs Percent Change from Baseline in TSB, Min [6]: −2.6%
6 hrs TSB, Max [6]: 12.3 mg/dL
6 hrs TSB, Mean (SD) [6]: 9.74 (1.730) mg/dL
6 hrs TSB, Min [6]: 6.8 mg/dL
12 hrs Percent Change from Baseline in TSB, Max [7]: 73.8%
12 hrs Percent Change from Baseline in TSB, Mean (SD) [7]: 26.17 (15.650) %
12 hrs Percent Change from Baseline in TSB, Min [7]: 0.0%
12 hrs TSB, Max [7]: 12.2 mg/dL
12 hrs TSB, Mean (SD) [7]: 10.26 (1.748) mg/dL
12 hrs TSB, Min [7]: 6.9 mg/dL
24 hrs Percent Change from Baseline in TSB, Max [8]: 86.9%
24 hrs Percent Change from Baseline in TSB, Mean (SD) [8]: 24.84 (23.900) %
24 hrs Percent Change from Baseline in TSB, Median [8]: 23.00%
24 hrs Percent Change from Baseline in TSB, Min [8]: −11.8%
24 hrs TSB, Max [8]: 11.9 mg/dL
24 hrs TSB, Mean (SD) [8]: 10.06 (1.757) mg/dL
24 hrs TSB, Min [8]: 6.7 mg/dL
48 hrs Percent Change from Baseline in TSB, Max [9]: 88.5%
48 hrs Percent Change from Baseline in TSB, Mean (SD) [9]: 31.84 (36.062) %
48 hrs Percent Change from Baseline in TSB, Min [9]: −44.7%
48 hrs TSB, Max [9]: 14.1 mg/dL
48 hrs TSB, Mean (SD) [9]: 10.68 (2.956) mg/dL
48 hrs TSB, Min [9]: 4.2 mg/dL
mean TSB levels (3.0 mg/kg, 14 days after treatment (text, not LOCF table)): 5.23 mg/dL
Baseline unadjusted TSB, Max [10]: 10.4 mg/dL
Baseline unadjusted TSB, Mean (SD) [10]: 8.33 (1.585) mg/dL
Baseline unadjusted TSB, Median [10]: 8.90 mg/dL
Baseline unadjusted TSB, Min [10]: 6.0 mg/dL
Baseline TSB, Max [11]: 10.4 mg/dL
Baseline TSB, Mean (SD) [11]: 8.21 (1.577) mg/dL
Baseline TSB, Min [11]: 5.5 mg/dL
Change from baseline of total serum bilirubin (6 hours, preliminary data): 1.69 ± 0.50
Change from baseline of total serum bilirubin (24 hours, preliminary data): 0.93 ± 0.20
Change from baseline of total serum bilirubin (48 hours, preliminary data): 0.80 ± 2.79
total serum bilirubin (4.5 mg/kg IM (N = 5), 48 hours, treated per protocol, preliminary data): 9.88 ± 2.8
adjusted TSB, Mean (SD) (4.5 mg/kg IM, 6 h, LOCF): −4.49 (11.322) %
change from baseline in adjusted TSB, Mean (SD) (4.5 mg/kg IM, 6 h, LOCF): 4.70 (4.583) %
change from baseline in adjusted TSB, Median (4.5 mg/kg IM, 6 h, LOCF): 4.10%
change from baseline in unadjusted TSB, Mean (SD) (4.5 mg/kg IM, 6 h, LOCF): 1.69 (0.493) mg/dL
change from baseline in unadjusted TSB, Median (4.5 mg/kg IM, 6 h, LOCF): 1.61 mg/dL
unadjusted TSB, Mean (SD) (4.5 mg/kg IM, 6 h, LOCF): 11.27 (2.074) mg/dL
unadjusted TSB, Median (4.5 mg/kg IM, 6 h, LOCF): 11.25 mg/dL
change from baseline in adjusted TSB, LS mean (SEM) [12]: 4.03 (2.697) %
change from baseline in adjusted TSB, LS mean difference versus placebo [12]: −0.35%
change from baseline in unadjusted TSB, LS Mean (SEM) [12]: 1.62 (0.293) mg/dL
change from baseline in unadjusted TSB, LS Mean Difference versus placebo [12]: 0.03 mg/dL
change from baseline in adjusted TSB, LS mean difference versus placebo, MMRM (4.5 mg/kg IM, 6 h): −2.38%
change from baseline in adjusted TSB, LS means (SEM), MMRM (4.5 mg/kg IM, 6 h): 2.00 (2.825) %
adjusted TSB, Mean (SD) (4.5 mg/kg IM, 12 h, LOCF): −7.80 (9.906) %
change from baseline in adjusted TSB, Mean (SD) (4.5 mg/kg IM, 12 h, LOCF): 1.39 (6.394) %
change from baseline in adjusted TSB, Median (4.5 mg/kg IM, 12 h, LOCF): −0.70%
change from baseline in unadjusted TSB, Mean (SD) (4.5 mg/kg IM, 12 h, LOCF): 1.89 (0.421) mg/dL
change from baseline in unadjusted TSB, Median (4.5 mg/kg IM, 12 h, LOCF): 1.92 mg/dL
unadjusted TSB, Mean (SD) (4.5 mg/kg IM, 12 h, LOCF): 11.48 (1.924) mg/dL
unadjusted TSB, Median (4.5 mg/kg IM, 12 h, LOCF): 11.27 mg/dL
change from baseline in adjusted TSB, LS mean (SEM) [13]: 2.17 (3.960) %
change from baseline in adjusted TSB, LS mean difference versus placebo [13]: −4.96%
change from baseline in unadjusted TSB, LS Mean (SEM) [13]: 1.95 (0.453) mg/dL
change from baseline in unadjusted TSB, LS Mean Difference versus placebo [13]: -0.65 mg/dL
change from baseline in adjusted TSB, LS mean difference versus placebo, MMRM (4.5 mg/kg IM, 12 h): −8.38%
change from baseline in adjusted TSB, LS means (SEM), MMRM (4.5 mg/kg IM, 12 h): −2.41 (3.856) %
adjusted TSB, Mean (SD) (4.5 mg/kg IM, 24 h, LOCF): −24.66 (15.145) %
change from baseline in adjusted TSB, Mean (SD) (4.5 mg/kg IM, 24 h, LOCF): −15.48 (18.694) %
